The text below walks through data of US20230133037A1, “EXTENDED RELEASE GASTRORETENTIVE FORMULATION AGAINST HELICOBACTER PYLORI” (SOLSTAR PHARMA, priority 2019, published 2023).

For one data set, the system named is H. pylori PremSS1 strain. Nature of the data set: In vivo test of anti-Helicobacter pylori activities. The settings on record: ARTE/SG 40, Nacinn 40, Amoxicillin 30 mg/kg. The arrangement: species or system C57BL/6 mice. On the procedure:
C57BL/6 mice with SPF («specific pathogen free») status, were housed at the A2 pet store at the University of Bordeaux, in an acclimatization room for 1 week and then transferred to zone of experimentation where the project was conducted.
The H. pylori PremSS1 strain (supplied by Dr Anne Mueller, University of Zurich) was used. The functionality of the cagPAl island was verified in vitro in a coculture model with the gastric epithelial line AGS: induction of a so-called «hummingbird» phenotype.
The mice were force-fed at 6 weeks of age with the H. pylori premSS1 strain. The gavages were carried out 3 consecutive days, with a rich suspension of bacteria (2 to 3 dishes of rich culture for 5 mice). […]
The dishes were incubated at 35° C. in a microaerobic atmosphere and H. pylori was identified by its phenotypic and biochemical characteristics (morphology, urease test, oxidase test). The dishes were read after at least 5 days of incubation. […]
Quantitative PCR: the presence of H. pylori DNA and mouse housekeeping genes is quantified in the extracts by quantitative PCR in real time, by detecting the fluorescence emitted by the neo PCR products formed using Sybr Green™. […]

For another data set, the system named is E. coli. Kind of data set: Antibacterial activity of artesunate with different treatments. The data set is classed as cell-based. The conditions noted are these: 0.2% w/w in medium, start 1.0×10^6 CFU/mL, 18 h at 36.5° C. On the procedure:
Practically, a bacterial cryovial is thawed and cultured twice during 18 h at 36.5° C. in 9 mL of broth for activation.

A short description of data set [1]: Water solubility / behaviour in solution. The data set is classed as physicochemical.
Data set [2] is described as follows: Solubility in simulated gastric fluid. The data set is classed as physicochemical. The settings on record: 0.5 g in 10 mL SGF pH 1.2, 36.5° C.; for appearance of the solution in SGF after 2 hours: 100 rev/min.
Procedure: All solutions are incubated at 36.5° C. under mild shaking with (100 rev/min) in a G24 Environmental Incubator Shaker (New Brunswick Scientific Co., N.J., USA).
For the next data set, the system named is THP1 cells. Kind of data set: Cell growth, resazurin fluorescence assay. The data set is classed as cell-based. The settings on record: 2 μM, 3 days. On the procedure:
(§1) Cell growth was followed via the resazurin (alamar blue) fluorescence assay. At day −1, cells were seeded in 100 μL media at a density of 4×10^3 cells/well in 96-well plates and incubated overnight at 37° C. […] Cultures were performed during 3 days after the addition of the drugs. At day 3, Resazurin (0.1 mg/mL, Sigma-Aldrich) was added at 20 μL/well, and plates were incubated for 4 h at 37° C., then fluorescence (Aex=529.5 nm, Aem =582 nm) was measured using ClarioStar™ microplate reader.
(§2) Those supposedly selected cells may be used to test for artemisinin sensitivity before and after encapsulation. This first objective, in addition to checking the sensitivity to artesunate (ARTE), is to test the sensitivity to the complex form (ARTE/Starch Glycolate) as well. This provides information on whether the encapsulation process affects the efficiency of ARTE in vitro. The effects of both drugs on the proliferation of 10 AML cell lines and 1 CML cell line was tested. Both the drug or the drug/Starch Glycolate complex were used at 2 μM, a dose that has been reported to be very efficient at least in two AML cell lines (MV4-11 and MOLM13). The ARTE/Starch Glycolate in water was prepared fresh every time for each experiment. Frozen (−20° C.) ARTE/Starch Glycolate complex was also tested in parallel to fresh ARTE/Starch Glycolate in each experiment, to evaluate stability after freezing. • a.
A general note: Resazurin is reduced to fluorescent resorufin, in cell work by metabolically active cells.

In the next data set the test system is U937 cells. Kind of data set: Cell growth, resazurin fluorescence assay. The format is cell-based. The settings on record: 2 μM, 3 days. On the procedure: as §1, §2
The test system of another data set is ML2 cells. Nature of the data set: Cell growth, resazurin fluorescence assay. The settings on record: 2 μM, 3 days. The format is cell-based. On the procedure:
as §1, §2

Another data set has as its system HL60 cells. Nature of the data set: Cell growth, resazurin fluorescence assay. The format is cell-based. The conditions noted are these: 2 μM, 3 days. On the procedure:
as §1, §2

The next data set concerns MOLM13 cells. Nature of the data set: Cell growth, resazurin fluorescence assay. The format is cell-based. The settings on record: 2 μM, 3 days. The method, then:
as §1, §2

Another data set concerns NB4 cells. Nature of the data set: Cell growth, resazurin fluorescence assay. The data set is classed as cell-based. The settings on record: 2 μM, 3 days. On the procedure:
as §1, §2

The next data set has as its system HEL cells. Nature of the data set: Cell growth, resazurin fluorescence assay. The data set is classed as cell-based. The conditions noted are these: 2 μM, 3 days. The method, then: as §1, §2
The next data set relates to KG1a cells. Kind of data set: Cell growth, resazurin fluorescence assay. The format is cell-based. The settings on record: 3 days. On the procedure:
Cell growth was followed via the resazurin (alamar blue) fluorescence assay. At day −1, cells were seeded in 100 μL media at a density of 4×10^3 cells/well in 96-well plates and incubated overnight at 37° C. […] Cultures were performed during 3 days after the addition of the drugs. At day 3, Resazurin (0.1 mg/mL, Sigma-Aldrich) was added at 20 μL/well, and plates were incubated for 4 h at 37° C., then fluorescence (Aex=529.5 nm, Aem =582 nm) was measured using ClarioStar™ microplate reader. […] Those supposedly selected cells may be used to test for artemisinin sensitivity before and after encapsulation. This first objective, in addition to checking the sensitivity to artesunate (ARTE), is to test the sensitivity to the complex form (ARTE/Starch Glycolate) as well. This provides information on whether the encapsulation process affects the efficiency of ARTE in vitro. The effects of both drugs on the proliferation of 10 AML cell lines and 1 CML cell line was tested. […] ARTE.SG and ARTE have the Same IC50 in 4 Representative Leukemic Cell Lines To further confirm the equivalent efficiency between ARTE and ARTE.SG, the IC50 of both drugs on 4 leukemic cell lines that cover the 3 sensitivity groups described above was calculated.

For data set [3] the following is noted: according to the DrugBank; cited from earlier work.
A further data set concerns KG1 cells. Nature of the data set: Cell growth, resazurin fluorescence assay. The format is cell-based. The conditions noted are these: 3 days. The method, then:
(§3) Cell growth was followed via the resazurin (alamar blue) fluorescence assay. At day −1, cells were seeded in 100 μL media at a density of 4×10^3 cells/well in 96-well plates and incubated overnight at 37° C. […] Cultures were performed during 3 days after the addition of the drugs. At day 3, Resazurin (0.1 mg/mL, Sigma-Aldrich) was added at 20 μL/well, and plates were incubated for 4 h at 37° C., then fluorescence (Aex=529.5 nm, Aem =582 nm) was measured using ClarioStar™ microplate reader. […] Those supposedly selected cells may be used to test for artemisinin sensitivity before and after encapsulation. This first objective, in addition to checking the sensitivity to artesunate (ARTE), is to test the sensitivity to the complex form (ARTE/Starch Glycolate) as well. This provides information on whether the encapsulation process affects the efficiency of ARTE in vitro. The effects of both drugs on the proliferation of 10 AML cell lines and 1 CML cell line was tested. Both the drug or the drug/Starch Glycolate complex were used at 2 μM, a dose that has been reported to be very efficient at least in two AML cell lines (MV4-11 and MOLM13). The ARTE/Starch Glycolate in water was prepared fresh every time for each experiment. Frozen (−20° C.) ARTE/Starch Glycolate complex was also tested in parallel to fresh ARTE/Starch Glycolate in each experiment, to evaluate stability after freezing. • a.

The next data set relates to MV4-11 cells. Kind of data set: Cell growth, resazurin fluorescence assay. The data set is classed as cell-based. The settings on record: 3 days. The method, then:
as §3

The next data set has as its system K562 cells. Kind of data set: Cell growth, resazurin fluorescence assay. The format is cell-based. The settings on record: 3 days. On the procedure: as §3
Details of data set [4]: species or system CD-1 mice. The settings on record: CD-1, mouse, in vivo, po, 200 mg/kg.
Procedure: The in vivo study was carried out on CD-1 mice (body weight approximately 20 g), and the experimental protocol is conducted according to the Animal Care Committee approval. After review of the medical records provided by the animal supplier facility, mice are observed during 1 week for their acclimation before the experiment.
The next data set deals with H. pylori strains. Kind of data set: Minimum inhibitory concentration, agar dilution method. The data set is classed as cell-based. The conditions noted are these: Helicobacter pylori; about 59 strains, 48 h at 37° C., microaerobic.
Details of data set [5]: species or system CD-1 mice. The settings on record: CD-1, mouse, in vivo.
Procedure: The in vivo study was carried out on CD-1 mice (body weight approximately 20 g), and the experimental protocol is conducted according to the Animal Care Committee approval.
After review of the medical records provided by the animal supplier facility, mice are observed during 1 week for their acclimation before the experiment.
After administering the treatments as indicated above, blood samples are collected at 5, 15, 30, 45, 120 and 480 minutes after administration and mice are sacrificed. The plasma is separated by centrifugation and conserved −80° C. before processing.
An amount of 400 μL of plasma is dispersed in 1 mL of acetonitrile to precipitate proteins and agitated during 5 minutes with a vortex before placing the suspensions of the sample in an ultrasonic bath for 1 minute. The precipitated proteins are separated by centrifugation (15000 g, 5 minutes at 16° C.) and the supernatant is collected in a microplate for analysis.

The structures appear in SMILES notation. ≈ marks a conversion by molar mass, not a printed value. Read-outs that look alike come from different tables or passages of the source.

Regarding `CC1(C)S[C@@H]2[C@H](NC(=O)[C@H](N)c3ccc(O)cc3)C(=O)N2[C@H]1C(=O)O` [Amoxicillin], in the data set on H. pylori PremSS1 strain (7 days of treatment, absence of proton pump inhibitor), the “antibacterial effect by quantitative culture or quantitative PCR (Experiment 1)” value is reported as “no antibacterial effect”. Further, the “antibacterial effect by quantitative culture or quantitative PCR (Experiment 2)” value with H. pylori PremSS1 strain (14 days, with Pantoprazole 150 mg/kg) is listed as “certain antibacterial effect”.
`C[C@H]1[C@H](OC(=O)CCC(=O)[O-])O[C@@H]2O[C@@]3(C)CC[C@H]4[C@H](C)CC[C@@H]1[C@@]24OO3.[Na+]` [artesunate sodium salt form]: in the data set on E. coli, the “bacterial concentration after incubation (reduction from 10^6)” value was 10^4 CFU/mL. Moreover, in [1], the “solubility in water” value is listed as “only slightly soluble”. In addition, in data set [2], the “appearance of the solution in SGF after 2 hours” value is given as “cloudy, but no evident precipitation is observed” and the “appearance of the solution in SGF after 12 h” value was “a precipitation is formed at the bottom”.
As a reminder, the IC50 is the point on the concentration scale where inhibition reaches its midpoint. Lower therefore signals greater potency. One may read the MIC50 as the lowest concentration that inhibits either 50% of growth or 50% of the strains tested, depending on the study. High values mean weaker potency, low ones greater potency. Usually MIC90 stands for the lowest concentration that inhibits either 90% of growth or 90% of the strains tested, depending on the study. Low readings indicate greater potency, high ones weaker potency. Turning to `C[C@@H]1CCC2[C@@H](C)[C@H](OC(=O)CCC(=O)O)OC3O[C@@]4(C)CCC1[C@]32OO4` (stereo partly shown) [untreated artesunate, Artesunate], the “bacterial concentration after incubation (reduction from 10^6)” value in the data set with E. coli is recorded as “no significant change”. The sensitivity group result was “highly sensitive” in the data set with THP1 cells; “moderately sensitive” in the data set on U937 cells; “moderately sensitive” in the data set on ML2 cells; “moderately sensitive” in the data set on HL60 cells; “highly sensitive” with MOLM13 cells; “highly sensitive” in the data set with NB4 cells. Besides, the sensitivity group result was “moderately sensitive” in the data set with HEL cells; “low sensitivity” in the data set with KG1a cells (2 μM); “moderately sensitive” in the data set on KG1 cells (2 μM); “highly sensitive” in the data set with MV4-11 cells (2 μM); “low sensitivity” in the data set on K562 cells (2 μM). In addition, the IC50 is about 2000 nM in the data set on KG1a cells (Homo sapiens, KG-1a, 72 h, preliminary); about 1000 nM with KG1 cells (Homo sapiens, KG-1, 72 h, preliminary); 250 to 500 nM with MV4-11 cells (Homo sapiens, MV4-11, 72 h, preliminary); about 8000 nM in the data set on K562 cells (Homo sapiens, K562, 72 h, preliminary). For the same compound, in data set [3], the water solubility was 680 µg/mL (≈ 1770 µM). The “time to maximum concentration of DHA (prostate section, printed 'in the brain')” value in data set [4] turned out to be 30 min. Moreover, the MIC50 against H. pylori strains stood at 20 µg/mL (≈ 52 µM). Moreover, the MIC90 in the data set on H. pylori strains amounted to 80 µg/mL (≈ 208 µM). Moreover, the “AUC Area under curve” value in data set [5] (iv, 3.5 mg/kg) was determined as 507 ± 102 ng·min/mL. Moreover, the “Cl Clearance” value in data set [5] (iv, 3.5 mg/kg) was determined as 415.8 ± 23.9 L/h/kg; in data set [5] (po, 200 mg/kg) it was 1457.7 ± 511.6 L/h/kg. Also, the “Tmax Maximum peak time” value in data set [5] (iv, 3.5 mg/kg) worked out at 15 min. In addition, the “T½ Apparent plasma half-life” value in data set [5] (iv, 3.5 mg/kg) stood at 12 ± 2 min. Further, the “Oral Bioavailability F” value in data set [5] (po, 200 mg/kg) was determined as 8 ± 4%. Also, the “appearance of the solution in SGF after 2 hours” value in [2] was “milky appearance, with an important precipitation at the bottom of vial”. For the same compound, the “appearance of the solution in SGF after 12 h” value in [2] is given as “no change”.
